“And” between values parts separate entries of the source, which are not always exact repeats. Equal entries are not always repeated. Structures can show the parent of a compound that is named as a salt.
What was measured:
[1] = test system: lymphocytic leukemia P388; assay: Lymphocytic Leukemia P388 Test; assay type: in vivo, mice
Method: The animals used are mice all of one sex, weighing a minimum of 17 g. and all within a 3 gram weight range. There are 5 or 6 animals per test group. The tumor transplant is by intraperitoneal injection of 0.1 ml. or 0.5 ml. of dilute ascitic fluid containing 10^6 cells of lymphocytic leukemia P388. The test compounds are administered intraperitoneally on days one, 5 and 9 (relative to tumor inoculation) at various doses. The animals are weighed and survivors are recorded on a regular basis for 30 days. The median survival time and the ratio of survival time for treated (T)/control (C) animals are calculated. […] The results of this test with representative compounds of the present invention appear in Table II below. The criterion for efficacy is T/C×100≥125%.

Enterococcus, SM 77-15 = assay: antibacterial activity in vitro, agar-dilution streak-plate technique; assay type: cell-based; settings: SM7715, 37° C. for 18 hours, read-out: minimal inhibitory concentration (MIC)
Method: (§1) The antibacterial spectrum in terms of the concentration required to inhibit the growth of various typical bacteria was determined in a standard manner by the agar-dilution streak-plate technique. A Steers multiple inocula replicator was used with incubation at 37° C. for 18 hours in Mueller-Ninton agar. The results for 7,12-bis-(2-imidazolin-2-ylhydrazone)benz[a]anthracene-7,12-dicarboxaldehyde dihydrochloride, a typical compound of this invention, are set forth in Table I as the minimal inhibitory concentration (MIC) in micrograms per milliliter.

[2] = test system: Staphylococcus aureus, Q 74-11; assay: as above; assay type: cell-based; settings: Q7411, 37° C. for 18 hours, read-out: minimal inhibitory concentration (MIC)
Method: as §1

[3] = test system: Staphylococcus aureus, OSU 75-2; assay: as above; assay type: cell-based; settings: OSU752, 37° C. for 18 hours, read-out: minimal inhibitory concentration (MIC)
Method: as §1

[4] = test system: Staphylococcus aureus, St. Paul (NYC 78-1); assay: as above; assay type: cell-based; settings: 37° C. for 18 hours, read-out: minimal inhibitory concentration (MIC)
Method: as §1

[5] = test system: melanotic melanoma B16 tumor; assay: Melanotic Melanoma B16; assay type: in vivo, C57BC/6 mice
Method: The animals used are C57BC/6 mice, all of the same sex, weighing a minimum of 17 g. and all within a 3 g. weight range. There are normally 10 animals per test group. A one-gram portion of melanotic melanoma B16 tumor is homogenized in 10 ml. of cold balanced salt solution and a 0.5 ml. aliquot of the homogenate is implanted intraperitoneally into each of the test mice. The test compounds are administered intraperitoneally on days one through 9 (relative to tumor inoculation) at various doses. The animals are weighed and survivors are recorded on a regular basis for 60 days. The median survival time and the ratio of survival time for treated (T)/control (C) animals are calculated. The positive control compound is 5-fluorouracil given as a 20 mg./kg. injection. The results of this test with a representative compound of the present invention appear in Table III below. The criterion for efficacy is T/C×100≥125%.

[6] = P388, dose 1.56 mg./kg. intraperitoneally on days one, 5 and 9
[7] = P388, dose 3.12 mg./kg. intraperitoneally on days one, 5 and 9
[8] = P388, dose 6.25 mg./kg. intraperitoneally on days one, 5 and 9
[9] = P388, dose 12.5 mg./kg. intraperitoneally on days one, 5 and 9
[10] = P388, dose 25 mg./kg. intraperitoneally on days one, 5 and 9
[11] = P388, dose 0.78 mg./kg. intraperitoneally on days one, 5 and 9
[12] = P388, dose 1.56 mg./kg. intraperitoneally on days one, 5 and 9, dihydrochloride
[13] = P388, dose 3.12 mg./kg. intraperitoneally on days one, 5 and 9, dihydrochloride
[14] = P388, dose 6.25 mg./kg. intraperitoneally on days one, 5 and 9, dihydrochloride
[15] = P388, dose 12.5 mg./kg. intraperitoneally on days one, 5 and 9, dihydrochloride
[16] = P388, dose 25 mg./kg. intraperitoneally on days one, 5 and 9, dihydrochloride
[17] = B16, dose 0.2 mg./kg. intraperitoneally on days one through 9
[18] = B16, dose 0.5 mg./kg. intraperitoneally on days one through 9
[19] = B16, dose 1.5 mg./kg. intraperitoneally on days one through 9
[20] = B16, dose 3 mg./kg. intraperitoneally on days one through 9
[21] = P388, positive control, dose 40 mg./kg.
[22] = P388, positive control, dose 60 mg./kg.
[23] = B16, positive control, dose 20 mg./kg.

C(=NNC1=NCCN1)C1c2ccccc2C(C=NNC2=NCCN2)c2c1ccc1ccccc21 (stereo not drawn) [Bis(2-imidazolin-2-ylhydrazone)-7,12-dihydro-benz[a]anthracene dicarboxaldehyde]
Median Survival [1, 6]: 14.5 days
T/C × 100 (Percent) [1, 6]: 132%
Median Survival [1, 7]: 14 days
T/C × 100 (Percent) [1, 7]: 127%
Median Survival [1, 8]: 16 days
T/C × 100 (Percent) [1, 8]: 145%
Median Survival [1, 9]: 18 days
T/C × 100 (Percent) [1, 9]: 164%
Median Survival [1, 10]: 20 days
T/C × 100 (Percent) [1, 10]: 182%

C(=NNC1=NCCN1)c1c2ccccc2c(C=NNC2=NCCN2)c2c1ccc1ccccc12 [Bis(2-imidazolin-2-ylhydrazone)-7,12-benz[a]anthracene dicarboxaldehyde dihydrochloride]
Median Survival [1, 11]: 15.0 days
T/C × 100 (Percent) [1, 11]: 150%
Median Survival [1, 6]: 16.0 days
T/C × 100 (Percent) [1, 6]: 160%
Median Survival [1, 7]: 17.5 days
T/C × 100 (Percent) [1, 7]: 175%
Median Survival [1, 8]: 19.0 days
T/C × 100 (Percent) [1, 8]: 190%
Median Survival [1, 9]: 19.0 days
T/C × 100 (Percent) [1, 9]: 190%
MIC (Enterococcus, SM 77-15): 8 µg/mL
MIC [2]: 8 µg/mL
MIC [3]: 16 µg/mL
MIC [4]: 8 µg/mL

C(=NNC1=NCCN1)C1c2ccccc2C(C=NNC2=NCCN2)c2c1ccc1ccccc21 (stereo not drawn) [Bis(2-imidazolin-2-ylhydrazone) of 7,12-dihydrobenz[a]anthracene-7,12-dicarboxaldehyde dihydrochloride]
Median Survival [1, 11]: 13.0 days
T/C × 100 (Percent) [1, 11]: 130%
Median Survival [1, 12]: 13.5 days
T/C × 100 (Percent) [1, 12]: 135%
Median Survival [1, 13]: 16.5 days
T/C × 100 (Percent) [1, 13]: 165%
Median Survival [1, 14]: 16.5 days
T/C × 100 (Percent) [1, 14]: 165%
Median Survival [1, 15]: 17.5 days
T/C × 100 (Percent) [1, 15]: 175%
Median Survival [1, 16]: 17 days
T/C × 100 (Percent) [1, 16]: 170%

C(=NNC1=NCCN1)c1c2ccccc2c(C=NNC2=NCCN2)c2c1ccc1ccccc12 [Bis(2-imidazolin-2-ylhydrazone) of benz[a]anthracene-7,12-dicarboxaldehyde]
Median Survival [5, 17]: 22.0 days
T/C × 100 (Percent) [5, 17]: 133%
Median Survival [5, 18]: 25.0 days
T/C × 100 (Percent) [5, 18]: 152%
Median Survival [5, 19]: 30.5 days
T/C × 100 (Percent) [5, 19]: 185%
Median Survival [5, 20]: 31.0 days
T/C × 100 (Percent) [5, 20]: 188%

C(=NNC1=NCCN1)c1c2ccccc2c(C=NNC2=NCCN2)c2cc3ccccc3cc12 [Bis(2-imidazolin-2-ylhydrazone)-5,12-benz[b]anthracene dicarboxaldehyde dihydrochloride]
Median Survival [1, 11]: 15.0 days
T/C × 100 (Percent) [1, 11]: 130%
Median Survival [1, 6]: 15.5 days
T/C × 100 (Percent) [1, 6]: 135%
Median Survival [1, 7]: 18.0 days
T/C × 100 (Percent) [1, 7]: 157%
Median Survival [1, 8]: 18.5 days
T/C × 100 (Percent) [1, 8]: 161%
Median Survival [1, 9]: 22.0 days
T/C × 100 (Percent) [1, 9]: 191%

O=c1[nH]cc(F)c(=O)[nH]1 [5-Fluorouracil, 5-fluorouracil, reference compound]
Median Survival [1, 21]: 18 days and 18.5 days
T/C × 100 (Percent) [1, 21]: 164% and 154%
Median Survival [1, 22]: 12.5 days and 20.0 days
T/C × 100 (Percent) [1, 22]: 109% and 200%
Median Survival [5, 23]: 25.5 days
T/C × 100 (Percent) [5, 23]: 155%

— patent US4187373A, “Novel dihydrobenzanthracene derivatives” (American Cyanamid Company, priority 1978, dated 1980)
